# Key:
# [1] = molecular target: Serine/threonine-protein kinase MRCK gamma (Homo sapiens) (UniProt Q6DT37)
# [2] = molecular target: 5-hydroxytryptamine receptor 3A (Homo sapiens) (UniProt P46098); conditions: Compound concentration 10.0 uM
# [3] = molecular target: Serine/threonine-protein kinase ULK2 (Homo sapiens) (UniProt Q8IYT8)
# [4] = molecular target: Peripheral plasma membrane protein CASK (Homo sapiens) (UniProt O14936)
# [5] = molecular target: TGF-beta receptor type-2 (Homo sapiens) (UniProt P37173)
# [6] = molecular target: Serine/threonine-protein kinase SIK2 (Homo sapiens) (UniProt Q9H0K1)
# [7] = molecular target: Serine/threonine-protein kinase PAK 2 (Homo sapiens) (UniProt Q13177)
# [8] = molecular target: Serine/threonine-protein kinase PknB (Mycobacterium tuberculosis) (UniProt P9WI81)
# [9] = molecular target: Macrophage colony-stimulating factor 1 receptor (Homo sapiens) (UniProt P07333)
# [10] = molecular target: Casein kinase II subunit alpha (Homo sapiens) (UniProt P68400)
# [11] = molecular target: Phosphatidylinositol 4,5-bisphosphate 3-kinase catalytic subunit alpha isoform (Homo sapiens) (UniProt P42336)
# [12] = molecular target: Serine/threonine-protein kinase DCLK2 (Homo sapiens) (UniProt Q8N568)
# [13] = molecular target: Interleukin-1 receptor-associated kinase 4 (Homo sapiens) (UniProt Q9NWZ3)
# [14] = molecular target: Serine/threonine-protein kinase 10 (Homo sapiens, UniProt O94804)
# [15] = molecular target: Serine/threonine-protein kinase MARK2 (Homo sapiens) (UniProt Q7KZI7)
# [16] = molecular target: Non-receptor tyrosine-protein kinase TYK2 (Homo sapiens) (UniProt P29597)
# [17] = molecular target: Dual specificity mitogen-activated protein kinase kinase 4 (Homo sapiens) (UniProt P45985)
# [18] = tested on: Epidermal growth factor receptor (Homo sapiens), P00533 [UNDEFINED MUTATION]
# [19] = molecular target: Calcium/calmodulin-dependent protein kinase type IV (Homo sapiens) (UniProt Q16566)
# [20] = molecular target: Myosin light chain kinase 2, skeletal/cardiac muscle (Homo sapiens) (UniProt Q9H1R3)
# [21] = molecular target: Calcium/calmodulin-dependent protein kinase type II subunit delta (Homo sapiens) (UniProt Q13557)
# [22] = molecular target: Dual specificity protein kinase CLK1 (Homo sapiens) (UniProt P49759)
# [23] = molecular target: Serine/threonine-protein kinase Chk2 (Homo sapiens) (UniProt O96017)
# [24] = tested on: Tyrosine-protein kinase ABL1 (Homo sapiens), P00519 [F317L]
# [25] = molecular target: Calcium/calmodulin-dependent protein kinase type II subunit alpha (Homo sapiens) (UniProt Q9UQM7)
# [26] = molecular target: Ribosomal protein S6 kinase alpha-5 (Homo sapiens) (UniProt O75582)
# [27] = tested on: Phosphatidylinositol 4,5-bisphosphate 3-kinase catalytic subunit alpha isoform (Homo sapiens), P42336 [M1043I]
# [28] = molecular target: Serine/threonine-protein kinase TAO3 (Homo sapiens) (UniProt Q9H2K8)
# [29] = molecular target: Serine/threonine-protein kinase 33 (Homo sapiens) (UniProt Q9BYT3)
# [30] = molecular target: Bone morphogenetic protein receptor type-2 (Homo sapiens) (UniProt Q13873)
# [31] = tested on: Tyrosine-protein kinase ABL1 (Homo sapiens), P00519 [Y253F]
# [32] = molecular target: Interferon-induced, double-stranded RNA-activated protein kinase (Homo sapiens) (UniProt P19525)
# [33] = molecular target: Alpha-1B adrenergic receptor (Homo sapiens) (UniProt P35368); conditions: Compound concentration 10.0 uM
# [34] = molecular target: 5-hydroxytryptamine receptor 7 (Homo sapiens) (UniProt P34969); conditions: Compound concentration 10.0 uM
# [35] = molecular target: Proto-oncogene tyrosine-protein kinase ROS (Homo sapiens) (UniProt P08922)
# [36] = molecular target: Maternal embryonic leucine zipper kinase (Homo sapiens) (UniProt Q14680)
# [37] = molecular target: Calcium/calmodulin-dependent protein kinase type II subunit gamma (Homo sapiens) (UniProt Q13555)
# [38] = molecular target: Cyclin-dependent kinase 18 (Homo sapiens) (UniProt Q07002)
# [39] = molecular target: Serine/threonine-protein kinase Nek5 (Homo sapiens) (UniProt Q6P3R8)
# [40] = molecular target: Cyclin-dependent kinase 11A (Homo sapiens) (UniProt Q9UQ88)
# [41] = molecular target: AP2-associated protein kinase 1 (Homo sapiens) (UniProt Q2M2I8)
# [42] = molecular target: Proto-oncogene tyrosine-protein kinase receptor Ret (Homo sapiens) (UniProt P07949)
# [43] = molecular target: Cyclin-dependent kinase-like 1 (Homo sapiens) (UniProt Q00532)
# [44] = molecular target: Serine/threonine-protein kinase PAK 5 (Homo sapiens) (UniProt Q9P286)
# [45] = Compound concentration 100.0 nM
# [46] = Compound concentration 1000.0 nM
# Chain of Maternal embryonic leucine zipper kinase (Homo sapiens) (Q14680 whole entry, looked up): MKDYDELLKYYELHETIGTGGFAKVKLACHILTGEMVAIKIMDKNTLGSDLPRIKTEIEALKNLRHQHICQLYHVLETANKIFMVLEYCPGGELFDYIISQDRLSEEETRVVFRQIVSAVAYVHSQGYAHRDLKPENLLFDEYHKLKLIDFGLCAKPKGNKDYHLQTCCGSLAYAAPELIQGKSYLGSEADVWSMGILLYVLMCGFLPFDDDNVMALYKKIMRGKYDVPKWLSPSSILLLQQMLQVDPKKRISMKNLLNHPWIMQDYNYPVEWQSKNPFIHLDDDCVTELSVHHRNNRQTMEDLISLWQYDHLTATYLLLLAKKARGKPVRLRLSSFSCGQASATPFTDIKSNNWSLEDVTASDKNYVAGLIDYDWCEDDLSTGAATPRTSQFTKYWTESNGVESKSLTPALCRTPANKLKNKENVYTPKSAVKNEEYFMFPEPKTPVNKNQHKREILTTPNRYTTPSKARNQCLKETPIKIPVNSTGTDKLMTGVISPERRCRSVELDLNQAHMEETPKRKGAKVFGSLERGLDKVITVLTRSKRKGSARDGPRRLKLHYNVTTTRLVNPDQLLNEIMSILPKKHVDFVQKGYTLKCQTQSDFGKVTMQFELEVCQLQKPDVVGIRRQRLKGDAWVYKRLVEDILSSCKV
# Chain of Interferon-induced, double-stranded RNA-activated protein kinase (Homo sapiens) (P19525 whole entry): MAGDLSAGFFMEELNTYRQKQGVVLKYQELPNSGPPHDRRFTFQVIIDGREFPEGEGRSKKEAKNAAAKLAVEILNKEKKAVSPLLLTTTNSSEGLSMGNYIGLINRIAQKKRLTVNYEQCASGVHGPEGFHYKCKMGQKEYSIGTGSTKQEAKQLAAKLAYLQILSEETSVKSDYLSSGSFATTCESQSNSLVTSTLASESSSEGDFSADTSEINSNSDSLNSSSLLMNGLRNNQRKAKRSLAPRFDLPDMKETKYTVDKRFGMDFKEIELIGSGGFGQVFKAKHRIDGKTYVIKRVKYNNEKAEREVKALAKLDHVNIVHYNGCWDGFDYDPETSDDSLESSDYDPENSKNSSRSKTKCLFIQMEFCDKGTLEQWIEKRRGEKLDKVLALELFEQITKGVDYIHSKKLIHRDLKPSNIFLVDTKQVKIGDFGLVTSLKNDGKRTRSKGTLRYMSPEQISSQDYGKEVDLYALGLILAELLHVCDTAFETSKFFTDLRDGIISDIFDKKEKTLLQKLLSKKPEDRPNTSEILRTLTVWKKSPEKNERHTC
# Chain of Calcium/calmodulin-dependent protein kinase type II subunit gamma (Homo sapiens) (Q13555 whole entry): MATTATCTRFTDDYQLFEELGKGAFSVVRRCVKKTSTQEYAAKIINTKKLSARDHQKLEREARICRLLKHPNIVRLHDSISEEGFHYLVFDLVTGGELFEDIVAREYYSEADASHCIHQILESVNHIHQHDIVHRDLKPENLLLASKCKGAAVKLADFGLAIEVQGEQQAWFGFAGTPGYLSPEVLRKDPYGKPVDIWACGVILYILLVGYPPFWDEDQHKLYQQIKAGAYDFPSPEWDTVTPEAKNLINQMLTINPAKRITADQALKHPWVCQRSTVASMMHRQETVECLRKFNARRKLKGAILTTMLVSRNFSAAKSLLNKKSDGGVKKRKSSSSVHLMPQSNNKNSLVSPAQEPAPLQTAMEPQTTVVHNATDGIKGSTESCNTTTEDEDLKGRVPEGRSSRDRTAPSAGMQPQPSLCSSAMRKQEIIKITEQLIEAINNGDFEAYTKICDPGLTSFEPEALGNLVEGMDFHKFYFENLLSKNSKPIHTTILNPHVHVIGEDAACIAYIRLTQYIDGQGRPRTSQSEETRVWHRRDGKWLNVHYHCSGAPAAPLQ
# Chain of Serine/threonine-protein kinase Chk2 (Homo sapiens) (O96017 whole entry): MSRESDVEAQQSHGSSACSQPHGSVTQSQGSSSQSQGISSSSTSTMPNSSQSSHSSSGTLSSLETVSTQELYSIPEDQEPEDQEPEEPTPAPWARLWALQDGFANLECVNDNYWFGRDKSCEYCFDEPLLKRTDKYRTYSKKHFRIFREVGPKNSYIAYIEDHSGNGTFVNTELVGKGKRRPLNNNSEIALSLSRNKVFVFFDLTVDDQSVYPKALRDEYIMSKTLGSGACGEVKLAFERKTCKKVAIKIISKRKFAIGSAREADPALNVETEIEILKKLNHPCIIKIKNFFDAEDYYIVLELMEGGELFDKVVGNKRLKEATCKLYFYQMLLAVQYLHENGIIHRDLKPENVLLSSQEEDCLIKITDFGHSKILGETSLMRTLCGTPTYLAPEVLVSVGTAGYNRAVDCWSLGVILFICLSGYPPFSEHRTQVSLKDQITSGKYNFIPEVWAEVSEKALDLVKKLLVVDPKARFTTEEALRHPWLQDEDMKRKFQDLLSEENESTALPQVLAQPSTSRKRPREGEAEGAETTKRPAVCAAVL
# Chain of Serine/threonine-protein kinase ULK2 (Homo sapiens) (Q8IYT8 whole entry): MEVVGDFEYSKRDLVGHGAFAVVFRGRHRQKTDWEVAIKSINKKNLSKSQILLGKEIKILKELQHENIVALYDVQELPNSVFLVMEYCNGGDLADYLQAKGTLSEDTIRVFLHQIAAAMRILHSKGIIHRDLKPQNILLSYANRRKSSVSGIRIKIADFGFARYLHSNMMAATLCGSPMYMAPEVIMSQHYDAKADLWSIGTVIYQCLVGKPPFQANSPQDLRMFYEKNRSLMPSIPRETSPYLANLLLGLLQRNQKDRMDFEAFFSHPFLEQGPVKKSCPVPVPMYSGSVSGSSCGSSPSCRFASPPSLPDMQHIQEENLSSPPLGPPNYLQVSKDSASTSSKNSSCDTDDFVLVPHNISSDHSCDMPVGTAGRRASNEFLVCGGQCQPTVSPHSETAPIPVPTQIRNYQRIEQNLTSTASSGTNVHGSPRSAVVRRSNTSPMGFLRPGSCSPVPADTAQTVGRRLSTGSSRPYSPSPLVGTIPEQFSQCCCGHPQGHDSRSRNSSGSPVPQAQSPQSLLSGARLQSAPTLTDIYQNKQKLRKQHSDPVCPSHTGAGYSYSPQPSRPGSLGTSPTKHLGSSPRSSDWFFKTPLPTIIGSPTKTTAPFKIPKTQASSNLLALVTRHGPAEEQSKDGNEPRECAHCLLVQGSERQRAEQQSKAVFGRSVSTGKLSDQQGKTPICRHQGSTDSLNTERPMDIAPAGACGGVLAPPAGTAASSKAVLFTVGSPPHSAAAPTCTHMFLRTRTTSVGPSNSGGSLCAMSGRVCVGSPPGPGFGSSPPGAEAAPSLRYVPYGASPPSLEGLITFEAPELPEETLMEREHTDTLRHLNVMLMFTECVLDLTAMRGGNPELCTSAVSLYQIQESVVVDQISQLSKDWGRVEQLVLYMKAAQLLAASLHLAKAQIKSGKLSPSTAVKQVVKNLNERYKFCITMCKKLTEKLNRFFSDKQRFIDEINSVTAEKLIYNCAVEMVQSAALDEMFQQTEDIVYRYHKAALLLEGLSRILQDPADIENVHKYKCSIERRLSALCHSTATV
# Chain of Calcium/calmodulin-dependent protein kinase type IV (Homo sapiens) (Q16566 whole entry): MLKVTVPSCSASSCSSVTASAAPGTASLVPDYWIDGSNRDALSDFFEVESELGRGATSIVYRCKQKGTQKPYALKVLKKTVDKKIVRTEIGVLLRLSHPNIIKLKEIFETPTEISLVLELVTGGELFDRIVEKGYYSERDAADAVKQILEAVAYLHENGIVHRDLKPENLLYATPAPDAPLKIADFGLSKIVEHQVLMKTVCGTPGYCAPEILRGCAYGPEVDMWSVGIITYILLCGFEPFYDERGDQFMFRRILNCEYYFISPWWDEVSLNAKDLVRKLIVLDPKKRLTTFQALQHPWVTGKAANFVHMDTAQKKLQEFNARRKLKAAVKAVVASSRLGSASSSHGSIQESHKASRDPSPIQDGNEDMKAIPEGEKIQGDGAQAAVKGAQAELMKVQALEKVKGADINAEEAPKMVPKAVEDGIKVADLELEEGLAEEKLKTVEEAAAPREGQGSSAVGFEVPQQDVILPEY
# Chain of Cyclin-dependent kinase-like 1 (Homo sapiens) (Q00532 whole entry): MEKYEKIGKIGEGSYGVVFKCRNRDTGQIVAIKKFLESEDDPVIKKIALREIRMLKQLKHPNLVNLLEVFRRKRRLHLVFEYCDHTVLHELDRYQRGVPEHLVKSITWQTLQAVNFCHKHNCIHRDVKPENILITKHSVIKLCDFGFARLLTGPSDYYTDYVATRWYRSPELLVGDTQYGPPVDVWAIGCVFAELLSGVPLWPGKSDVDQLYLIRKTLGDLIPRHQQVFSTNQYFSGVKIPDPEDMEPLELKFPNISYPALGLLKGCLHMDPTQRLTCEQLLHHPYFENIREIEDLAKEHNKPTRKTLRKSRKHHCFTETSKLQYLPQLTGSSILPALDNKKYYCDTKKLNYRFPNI
# Chain of Serine/threonine-protein kinase 33 (Homo sapiens) (Q9BYT3 whole entry, looked up): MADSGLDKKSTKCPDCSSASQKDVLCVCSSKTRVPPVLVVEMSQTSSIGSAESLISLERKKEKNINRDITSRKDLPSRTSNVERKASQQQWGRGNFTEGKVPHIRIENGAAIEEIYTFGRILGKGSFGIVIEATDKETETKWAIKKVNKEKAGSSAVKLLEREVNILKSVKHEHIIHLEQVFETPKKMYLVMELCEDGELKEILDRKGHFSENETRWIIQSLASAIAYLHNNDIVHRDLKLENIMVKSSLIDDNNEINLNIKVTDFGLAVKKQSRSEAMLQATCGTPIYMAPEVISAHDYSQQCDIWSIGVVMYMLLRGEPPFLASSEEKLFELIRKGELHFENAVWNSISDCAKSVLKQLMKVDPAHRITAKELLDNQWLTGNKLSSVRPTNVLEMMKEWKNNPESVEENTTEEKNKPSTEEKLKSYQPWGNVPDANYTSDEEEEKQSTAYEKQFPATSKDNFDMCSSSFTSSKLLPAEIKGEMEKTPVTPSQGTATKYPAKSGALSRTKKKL
smiles,measurement,setting,value
Cc1cc(C)c(-n2ccn3nc(-c4cccnc4)cc23)cc1NC(=O)c1cc(C#N)cc(S(F)(F)(F)(F)F)c1 [BAY-826],residual activity,[1]; [45],88.8%
same,inhibition,[2],18.4%
same,residual activity,[3]; [45],100%
same,residual activity,[4]; [45],86.6%
same,residual activity,[5]; [45],78.6%
same,residual activity,[6]; [45],94.2%
same,residual activity,[7]; [45],89.8%
same,residual activity,[8]; [45],62.5%
same,residual activity,[9]; [45],85.5%
same,residual activity,[10]; [45],74.2%
same,residual activity,[11]; [45],87.9%
same,residual activity,[12]; [45],90.6%
same,residual activity,[13]; [45],100%
same,residual activity,[14]; [45],1.8%
same,residual activity,[15]; [45],100%
same,residual activity,[16]; [45],76.9%
same,residual activity,[17]; [45],74.7%
same,residual activity,[18]; [45],88.5%
same,residual activity,[19]; [45],93.9%
same,residual activity,[20]; [45],100%
same,residual activity,[21]; [45],89.1%
same,residual activity,[22]; [45],96.2%
same,residual activity,[23]; [45],100%
same,residual activity,[24]; [45],63.3%
same,residual activity,[25]; [45],95%
same,residual activity,[26]; [45],83.2%
same,residual activity,[27]; [45],100%
same,residual activity,[28]; [45],47.1%
same,residual activity,[29]; [45],100%
same,residual activity,[30]; [45],89.4%
same,residual activity,[31]; [45],68.6%
same,residual activity,[32]; [45],96.4%
same,inhibition,[33],-0.87%
same,inhibition,[34],-3.4%
same,residual activity,[35]; [45],100%
same,residual activity,[36]; [45],100%
same,residual activity,[37]; [45],93.4%
same,residual activity,[38]; [45],98.4%
same,residual activity,[39]; [45],87.8%
same,residual activity,[40]; [45],89.9%
same,residual activity,[41]; [45],95.9%
same,residual activity,[42]; [45],82%
same,residual activity,[43]; [45],77.4%
same,residual activity,[44]; [45],83.5%
Cc1cc(NC(=O)c2cccc(S(F)(F)(F)(F)F)c2)cc(-n2ccn3nc(-c4cccnc4)cc23)c1 [BAY-309],residual activity,[1]; [46],100%
same,inhibition,[2],-8.73%
same,residual activity,[3]; [46],73.7%
same,residual activity,[4]; [46],68.1%
same,residual activity,[5]; [46],94.5%
same,residual activity,[6]; [46],100%
same,residual activity,[7]; [46],100%
same,residual activity,[8]; [46],63.7%
same,residual activity,[9]; [46],100%
same,residual activity,[10]; [46],66.7%
same,residual activity,[11]; [46],100%
same,residual activity,[12]; [46],100%
same,residual activity,[13]; [46],98.4%
same,residual activity,[14]; [46],26.8%
same,residual activity,[15]; [46],100%
same,residual activity,[16]; [46],51%
same,residual activity,[17]; [46],76%
same,residual activity,[18]; [46],100%
same,residual activity,[19]; [46],80.5%
same,residual activity,[20]; [46],100%
same,residual activity,[21]; [46],80%
same,residual activity,[22]; [46],100%
same,residual activity,[23]; [46],100%
same,residual activity,[24]; [46],72.9%
same,residual activity,[25]; [46],100%
same,residual activity,[26]; [46],100%
same,residual activity,[27]; [46],30.3%
same,residual activity,[28]; [46],100%
same,residual activity,[29]; [46],87.8%
same,residual activity,[30]; [46],59.3%
same,residual activity,[31]; [46],100%
same,residual activity,[32]; [46],72.7%
same,inhibition,[33],-8.99%
same,inhibition,[34],6.71%
same,residual activity,[35]; [46],92.8%
same,residual activity,[36]; [46],100%
same,residual activity,[37]; [46],100%
same,residual activity,[38]; [46],80.6%
same,residual activity,[39]; [46],86.8%
same,residual activity,[40]; [46],95.4%
same,residual activity,[41]; [46],100%
same,residual activity,[42]; [46],100%
same,residual activity,[43]; [46],84.5%
same,residual activity,[44]; [46],100%
